We go through one compound from ChEMBL document CHEMBL5728172, “Pteridine dione monocarboxylate transporter inhibitors” (2020).

The structures appear in SMILES notation.

A short description of the assay: Biological Activity of Selected Compounds of the Invention: Specific Examples of compounds of the invention, with estimated EC50 values determined using an MTT assay for 4-day viability of Raji (Burkitt's) lymphoma cells, a cell line known to highly express MCT1 and to be sensitive to small molecule MCT inhibitors,4 are shown in Table 3. Assay protocols follow those described in the literature.4 Other assays that are not described here but that are standard in the field, such as an assay for competitive inhibition of transport of radiolabeled lactic acid, an MCT substrate, may also be useful in establishing mechanism of action of these compounds. Particulars: 96 h.

For the compound `CC(C)Cn1c(=O)n(C)c(=O)c2nc(CCCCCO)c(COc3cccc4ncccc34)nc21`, the half-maximal effective concentration (EC50) was less than 50 nM.
